Measured values from ChEMBL document CHEMBL1240361 (2010).

Columns and labels:
Assay type in all cases: functional
Staphylococcus aureus [1] = assay: (§1) Antibacterial activity against methicillin-resistant Staphylococcus aureus infected in New Zealand white rabbit osteomyelitis model assessed as change in bacterial load in joint fluid per gram of tissue at 500 ug/mg administered via calcium-deficient apatite followed by constant iv infusion on day 3 post infection measured on day 7 by HPLC analysis
Staphylococcus aureus [2] = assay: as §1, with “bone” for “joint fluid”, “25” for “500”
Staphylococcus aureus [3] = assay: as §1, with “bone marrow” for “joint fluid”, “100” for “500”, “apatite” for “apatite followed by constant iv infusion”
Staphylococcus aureus [4] = assay: as §1, with “bone” for “joint fluid”, “100” for “500”, “apatite” for “apatite followed by constant iv infusion”
Staphylococcus aureus [5] = assay: as §1, with “apatite” for “apatite followed by constant iv infusion”
Staphylococcus aureus [6] = assay: as §1, with “bone” for “joint fluid”, “apatite” for “apatite followed by constant iv infusion”
Staphylococcus aureus [7] = assay: as §1, with “tissue” for “tissue at 500 ug/mg”, “via” for “via calcium-deficient apatite followed by”, “infusion in presence of unloaded calcium-deficient apatites” for “infusion”
Staphylococcus aureus [8] = assay: as §1, with “bone marrow” for “joint fluid”, “25” for “500”, “apatite” for “apatite followed by constant iv infusion”
Staphylococcus aureus [9] = assay: (§2) Antibacterial activity against methicillin-resistant Staphylococcus aureus infected in New Zealand white rabbit osteomyelitis model assessed as change in bacterial load in joint fluid per gram of tissue administered via constant iv infusion on day 3 post infection measured on day 7 by HPLC analysis
Staphylococcus aureus [10] = assay: as §1, with “bone marrow” for “joint fluid”, “100” for “500”
Staphylococcus aureus [11] = assay: as §1, with “100” for “500”
Staphylococcus aureus [12] = assay: as §1, with “25” for “500”
Staphylococcus aureus [13] = assay: as §1, with “100” for “500”, “apatite” for “apatite followed by constant iv infusion”
Staphylococcus aureus [14] = assay: as §2, with “bone” for “joint fluid”, “infusion in presence of unloaded calcium-deficient apatites” for “infusion”
Staphylococcus aureus [15] = assay: as §1, with “bone marrow” for “joint fluid”, “25” for “500”
Staphylococcus aureus [16] = assay: as §1, with “bone” for “joint fluid”, “25” for “500”, “apatite” for “apatite followed by constant iv infusion”
Staphylococcus aureus [17] = assay: as §1, with “bone” for “joint fluid”, “100” for “500”
Staphylococcus aureus [18] = assay: (§3) Antibacterial activity against methicillin-resistant Staphylococcus aureus infected in New Zealand white rabbit osteomyelitis model assessed as change in bacterial load in bone per gram of tissue administered via constant iv infusion on day 3 post infection measured on day 7 by HPLC analysis
Staphylococcus aureus [19] = assay: as §3, with “bone marrow” for “bone”, “infusion in presence of unloaded calcium-deficient apatites” for “infusion”
Staphylococcus aureus [20] = assay: Antibacterial activity against methicillin-resistant Staphylococcus aureus infected in New Zealand white rabbit osteomyelitis model assessed as change in bacterial load in bone marrow per gram of tissue administered via constant iv infusion on day 3 post infection measured on day 7 by HPLC analysis
Staphylococcus aureus [21] = assay: as §1, with “25” for “500”, “apatite” for “apatite followed by constant iv infusion”
Staphylococcus aureus [22] = assay: as §1, with “bone marrow” for “joint fluid”, “apatite” for “apatite followed by constant iv infusion”
Staphylococcus aureus [23] = assay: as §1, with “bone marrow” for “joint fluid”

SMILES: CN[C@H](CC(C)C)C(=O)N[C@H]1C(=O)N[C@@H](CC(N)=O)C(=O)N[C@H]2C(=O)N[C@H]3C(=O)N[C@H](C(=O)N[C@H](C(=O)O)c4cc(O)cc(O)c4-c4cc3ccc4O)[C@H](O)c3ccc(c(Cl)c3)Oc3cc2cc(c3O[C@@H]2O[C@H](CO)[C@@H](O)[C@H](O)[C@H]2O[C@H]2C[C@](C)(N)[C@H](O)[C@H](C)O2)Oc2ccc(cc2Cl)[C@H]1O [VANCOMYCIN]
- log10cfu (Staphylococcus aureus [1]): 1.69
- log10cfu (Staphylococcus aureus [2]): -2.4
- log10cfu (Staphylococcus aureus [3]): 3.41
- log10cfu (Staphylococcus aureus [4]): 2.35
- log10cfu (Staphylococcus aureus [5]): 0.29
- log10cfu (Staphylococcus aureus [6]): 3.57
- log10cfu (Staphylococcus aureus [7]): 0.3
- log10cfu (Staphylococcus aureus [8]): 1.89
- log10cfu (Staphylococcus aureus [9]): 0.03
- log10cfu (Staphylococcus aureus [10]): -4.03
- log10cfu (Staphylococcus aureus [11]): 0.9
- log10cfu (Staphylococcus aureus [12]): 0.68
- log10cfu (Staphylococcus aureus [13]): 0.05
- log10cfu (Staphylococcus aureus [14]): 0.35
- log10cfu (Staphylococcus aureus [15]): -3.14
- log10cfu (Staphylococcus aureus [16]): 1.97
- log10cfu (Staphylococcus aureus [17]): -4.63
- log10cfu (Staphylococcus aureus [18]): 0.61
- log10cfu (Staphylococcus aureus [19]): 0.75
- log10cfu (Staphylococcus aureus [20]): 0.73
- log10cfu (Staphylococcus aureus [21]): 0.56
- log10cfu (Staphylococcus aureus [22]): 4.08
- log10cfu (Staphylococcus aureus [23]): 4.21
